Reference: ChEMBL document CHEMBL5344409, “Discovery of pan-IAP degraders via a CRBN recruiting mechanism” (2023)
The source made the active and inactive calls. No cut-off for these calls is given here.

Tests used:
[1] = target: Baculoviral IAP repeat-containing protein 2 (Homo sapiens) (UniProt Q13490); experiment: Induction of cIAP1 degradation in human MCF7 cells transfected with CRBN siRNA at 0.01 to 1 uM measured after 18 hrs by western blot analysis; format: cell-based; conditions: dose 0.01-1 µM
[2] = target: Baculoviral IAP repeat-containing protein 2 (Homo sapiens) (UniProt Q13490); experiment: Induction of cIAP1 degradation in human MCF7 cells at 0.1 uM measured within 1 hr by western blot analysis; format: cell-based
[3] = target: T1, Protein cereblon/Baculoviral IAP repeat-containing protein 3 (Homo sapiens) (UniProt Q13489+Q96SW2); experiment: PROTAC activity at CRBN/cIAP2 in human MCF7 cells assessed as induction of cIAP2 degradation at 0.1 uM measured after 18 hrs by western blot analysis; format: cell-based
[4] = target: T2, Protein cereblon/E3 ubiquitin-protein ligase XIAP (Homo sapiens) (UniProt P98170+Q96SW2); experiment: PROTAC activity at CRBN/XIAP in human MCF7 cells assessed as protein abundance at 1 uM measured after 4 hrs by TMT-labeling based LC-MS/MS analysis; format: cell-based
[5] = target: T1, Protein cereblon/Baculoviral IAP repeat-containing protein 3 (Homo sapiens); experiment: PROTAC activity at CRBN/cIAP2 in human MCF7 cells assessed as induction of cIAP2 degradation at 1 uM measured after 18 hrs by western blot analysis; format: cell-based
MCF7 [6] = experiment: Cytotoxicity against human MCF7 cells assessed as reduction in cell viability at 1 uM measured after 24 hrs in presence of TNF-alpha by CellTiter-Glo luminescent assay; format: functional, cell-based
[7] = target: T2, Protein cereblon/E3 ubiquitin-protein ligase XIAP (Homo sapiens); experiment: PROTAC activity at CRBN/XIAP in human MCF7 cells assessed as induction of XIAP degradation at 0.1 uM measured after 18 hrs by western blot analysis; format: cell-based
MCF7 [8] = experiment: Induction of apoptosis in human MCF7 cells assessed as increase in caspase 3/7 activity at 0.01 to 1 uM measured after 18 hrs by Caspase-Glo reagent based luminescence analysis; format: functional, cell-based; conditions: dose 0.01-1 µM
[9] = target: T2, Protein cereblon/E3 ubiquitin-protein ligase XIAP (Homo sapiens); experiment: PROTAC activity at CRBN/XIAP in human MCF7 cells assessed as induction of XIAP degradation at 1 uM measured after 6 hrs in presence of proteasome inhibitor, MG132 by western blot analysis; format: cell-based
MCF7 [10] = experiment: Induction of apoptosis in human MCF7 cells assessed as increase in caspase-7 cleavage at 1 uM measured after 6 hrs in presence of TNF-alpha by western blot analysis; format: functional, cell-based
[11] = target: Protein cereblon-IAP (Homo sapiens) (UniProt P98170+Q13489+Q13490+Q96SW2); experiment: PROTAC activity at CRBN/IAP in human MCF7 cells assessed as inhibition of TNFalpha-induced NFkappaB activation by measuring decrease in IKKalpha/beta phosphorylation at 0.1 uM pretreated for 2 hrs followed by stimulation with TNF-alpha for 3 mins by western blot analysis; format: cell-based; conditions: time 123.0 min
[12] = target: T2, Protein cereblon/E3 ubiquitin-protein ligase XIAP (Homo sapiens); experiment: Binding affinity to CRBN/XIAP in human HEK293T cells assessed as ternary complex formation at 1 uM measured after 6 hrs by immunoprecipitation analysis; format: cell-based
[13] = target: T2, Protein cereblon/E3 ubiquitin-protein ligase XIAP (Homo sapiens); experiment: PROTAC activity at CRBN/XIAP in human MCF7 cells assessed as induction of XIAP degradation at 0.1 to 10 uM measured after 18 hrs by western blot analysis; format: cell-based; conditions: dose 0.1-10 µM
[14] = target: E3 ubiquitin-protein ligase XIAP (Homo sapiens) (UniProt P98170); experiment: Induction of XIAP degradation in human MCF7 cells transfected with CRBN siRNA at 0.01 to 1 uM measured after 18 hrs by western blot analysis; format: cell-based; conditions: dose 0.01-1 µM
E3 ubiquitin-protein ligase XIAP (Homo sapiens), sequence (P98170 whole entry): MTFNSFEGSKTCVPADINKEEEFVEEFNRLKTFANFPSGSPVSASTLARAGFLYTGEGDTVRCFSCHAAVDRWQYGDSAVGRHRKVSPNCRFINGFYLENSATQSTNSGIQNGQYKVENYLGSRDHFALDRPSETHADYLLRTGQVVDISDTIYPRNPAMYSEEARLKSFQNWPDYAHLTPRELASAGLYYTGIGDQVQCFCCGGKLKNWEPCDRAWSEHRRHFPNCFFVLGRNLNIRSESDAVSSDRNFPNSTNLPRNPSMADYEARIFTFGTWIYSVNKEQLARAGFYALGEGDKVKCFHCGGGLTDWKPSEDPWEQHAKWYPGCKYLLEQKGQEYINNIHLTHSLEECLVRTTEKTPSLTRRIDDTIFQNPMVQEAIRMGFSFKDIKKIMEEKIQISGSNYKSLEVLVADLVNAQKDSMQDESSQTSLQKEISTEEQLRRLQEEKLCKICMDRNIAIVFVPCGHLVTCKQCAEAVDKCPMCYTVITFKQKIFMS

T2 sequence (P98170 whole entry, looked up): as the sequence (P98170 whole entry) above
T2 sequence (Q96SW2 whole entry, looked up): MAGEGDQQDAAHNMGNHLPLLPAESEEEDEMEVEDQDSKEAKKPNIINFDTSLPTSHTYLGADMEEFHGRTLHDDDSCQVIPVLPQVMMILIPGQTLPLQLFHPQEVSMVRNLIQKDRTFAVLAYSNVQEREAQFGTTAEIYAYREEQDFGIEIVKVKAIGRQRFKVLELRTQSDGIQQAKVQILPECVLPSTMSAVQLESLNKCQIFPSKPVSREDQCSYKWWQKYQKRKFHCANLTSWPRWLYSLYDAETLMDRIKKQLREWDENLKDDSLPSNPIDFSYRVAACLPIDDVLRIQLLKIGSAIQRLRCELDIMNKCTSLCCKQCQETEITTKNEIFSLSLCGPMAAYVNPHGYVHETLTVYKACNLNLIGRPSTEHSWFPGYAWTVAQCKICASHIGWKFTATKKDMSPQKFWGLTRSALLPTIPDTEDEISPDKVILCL
T1 sequence (Q13489 whole entry, looked up): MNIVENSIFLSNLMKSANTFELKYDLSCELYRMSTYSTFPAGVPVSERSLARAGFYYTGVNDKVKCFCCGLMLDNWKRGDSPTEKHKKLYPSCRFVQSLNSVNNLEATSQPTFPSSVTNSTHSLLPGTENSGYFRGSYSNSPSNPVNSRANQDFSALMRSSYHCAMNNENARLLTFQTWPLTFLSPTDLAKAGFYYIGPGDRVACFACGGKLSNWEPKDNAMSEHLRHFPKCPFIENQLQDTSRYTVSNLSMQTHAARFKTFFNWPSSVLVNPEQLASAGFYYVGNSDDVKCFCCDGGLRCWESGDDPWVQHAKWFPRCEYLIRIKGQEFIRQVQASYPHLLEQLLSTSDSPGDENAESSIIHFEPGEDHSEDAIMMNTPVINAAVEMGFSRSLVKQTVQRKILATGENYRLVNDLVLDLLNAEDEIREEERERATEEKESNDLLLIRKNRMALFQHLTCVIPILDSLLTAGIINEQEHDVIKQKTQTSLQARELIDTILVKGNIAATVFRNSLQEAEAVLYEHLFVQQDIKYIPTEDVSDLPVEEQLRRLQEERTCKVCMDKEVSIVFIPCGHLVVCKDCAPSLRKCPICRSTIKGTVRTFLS
T1 sequence (Q96SW2 whole entry, looked up): as the sequence (Q96SW2 whole entry, looked up) above
Baculoviral IAP repeat-containing protein 2 (Homo sapiens), sequence (Q13490 whole entry): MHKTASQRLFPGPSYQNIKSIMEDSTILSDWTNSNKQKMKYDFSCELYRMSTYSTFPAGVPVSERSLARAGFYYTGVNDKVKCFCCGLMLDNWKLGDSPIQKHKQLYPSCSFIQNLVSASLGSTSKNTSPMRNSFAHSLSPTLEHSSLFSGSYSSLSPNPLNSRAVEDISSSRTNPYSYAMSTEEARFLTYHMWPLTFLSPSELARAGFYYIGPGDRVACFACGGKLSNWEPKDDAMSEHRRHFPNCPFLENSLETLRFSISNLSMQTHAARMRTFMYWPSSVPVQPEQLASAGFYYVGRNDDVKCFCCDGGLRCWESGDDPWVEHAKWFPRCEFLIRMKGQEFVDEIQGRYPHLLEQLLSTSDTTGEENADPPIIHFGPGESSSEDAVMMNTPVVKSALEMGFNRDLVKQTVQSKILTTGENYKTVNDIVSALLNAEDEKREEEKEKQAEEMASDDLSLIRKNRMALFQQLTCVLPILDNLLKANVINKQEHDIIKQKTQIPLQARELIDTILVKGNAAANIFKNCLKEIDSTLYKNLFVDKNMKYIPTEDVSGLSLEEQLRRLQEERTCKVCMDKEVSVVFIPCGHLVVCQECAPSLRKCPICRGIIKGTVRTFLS
Protein cereblon-IAP (Homo sapiens), sequence (P98170 whole entry, looked up): as the sequence (P98170 whole entry) above
Protein cereblon-IAP (Homo sapiens), sequence (Q13489 whole entry, looked up): as the sequence (Q13489 whole entry, looked up) above
Protein cereblon-IAP (Homo sapiens), sequence (Q13490 whole entry, looked up): as the sequence (Q13490 whole entry) above
Protein cereblon-IAP (Homo sapiens), sequence (Q96SW2 whole entry, looked up): as the sequence (Q96SW2 whole entry, looked up) above

Activity [1]: Active | Activity [2]: > 90% | Activity [3]: 90% | fold change (FC) [4]: > 2 | Activity [5]: 97% | Activity [7]: 99% | Activity [9]: inactive | Activity [11]: Active | Activity [12]: Active | Activity [13]: Active | Activity [14]: inactive
SMILES: CN[C@@H](C)C(=O)N[C@H](C(=O)N1Cc2cc(OCCCCCCCCNC(=O)C3CN(c4ccc5c(c4)C(=O)N(C4CCC(=O)NC4=O)C5=O)C3)ccc2C[C@H]1C(=O)N[C@@H]1CCCc2ccccc21)C(C)(C)C (some centres undefined)
Activity (MCF7 [6]): Active | Activity (MCF7 [8]): Active | Activity (MCF7 [10]): Active
